{"source": "patent US12022830B2", "about": "“Formulations of metal and ascorbic acid complexes, their obtaining and use” (INTERMAG SP. Z O.O., priority 2017, dated 2024)", "key": {"[1]": {"test_system": "celery (Apium graveolens)", "experiment": "Vanadyl ascorbate in cultivation of celery", "format": "in vivo", "conditions": "for root mass increase compared to plants from the control object: celery; for Chlorophyll / Dry mass of leaves / Dry mass of root / Flavonoids / Mass of celery leaves / Mass of celery root: sprayed three times", "method": "Cultivation of celery (Apium graveolens) was carried out in a plastic tunnel in pots with a capacity of 3 l filled with peat substrate. Vanadyl ascorbate at a 1:2 molar ratio of V:Asc (VO(C6H7O6)2.2H2O) was applied three times during the entire cultivation in BBCH phases: 4-16 (4-6 leaves), 19-40 (10 and more leaves) and 42-44 (root development) in the form of fine-droplet spraying. Two vanadium doses of 5 g V/ha (0.001%) and 10 g V/ha (0.002%) were used. The experiment was performed in a random block system, combinations were drawn in 4 blocks. There were 20 celery plants for each combination.\nThe mass of celery leaves has been increased both by the application of vanadium in the amount of 5 g and 10 g/ha. […] For a smaller dose, root mass has increased by 23%, while for a dose of 10 g V/ha by 11% compared to plants from the control object. A dose of 5 g V/ha positively influenced the quality parameters of celery, the dry mass of leaves, the content of chlorophyll and flavonoids have increased. However, a dose of 10 g V/ha contributed to the increase in dry mass of leaves and to the increase in content of flavonoids. The results of this experiment indicate a biostimulatory effect of low doses of vanadium on the utility yield increase of vegetable plants and its qualitative parameters."}, "[2]": {"test_system": "iceberg lettuce", "experiment": "Vanadyl ascorbate in cultivation of iceberg lettuce, head mass, chlorophyll, flavonoids, nutrients", "format": "in vivo, Lactuca sativa", "conditions": "foliar twice, total 10 g V/ha", "excerpt": "Iceberg cabbage lettuce (Lactuca sativa) of Rubette type was cultivated in a plastic tunnel in pots with a capacity of 3 l filled with a peat substrate. Titanil ascorbate at a 1:2 molar ratio of Ti: Asc (TiO(C6H7O6)2.2H2O) and liquid titanil ascorbate at a 1.5:1 molar ratio of (obtained in situ—according to the method of patent specification PL 163688 or PL 214628) were applied in a foliar manner twice during the entire cultivation, the concentration of titanium in the working liquid for both formulations was 0.00085% Ti. In two applications, the total titanium dose per hectare was 3.4 g Ti/ha. The experiment was performed in a random block system, combinations were drawn in 4 blocks. There were 20 lettuce plants for each combination.\nThe experiment was performed analogously to the titanium complex at a 1:2 or 1.5:1 (Example 20) molar ratio of Ti:ascorbic acid. VO(C6H7O6)2.2H2O was used in the form of foliar spraying twice, vanadium concentration in the working liquid was 0.001% V. In two applications, the total micronutrient dose per hectare was 10 g V/ha.\nFoliar application of VO(C6H7O6)2.2H2O increased the mass of the lettuce head by 14% compared to the control. Furthermore, vanadium ascorbate at a 1:2 molar ratio of V:Asc increased the chlorophyll content. Also, differences were found in the level of flavonoid accumulation between the control object and the combination treated with VO(C6H7O6)2.2H2O."}, "[3]": {"experiment": "Study of solution stability for a given complex", "format": "physicochemical", "conditions": "complexes in the form of solutions"}, "[4]": {"test_system": "diseases affecting the plant spikes", "experiment": "Vanadyl ascorbate on wheat of Figura type, diseases affecting the plant spikes", "format": "in vivo", "conditions": "initial studies, analogous to the titanium complex", "excerpt": "In the case of diseases attacking spikes, on the control combination, infestation by Cladosporium herbarum at 20%, by Septoria nodorum at 10% and by Gibberella avenacea at 10% were found. On sprayed plants, infestations were 1%, 1% and 0% respectively."}, "[5]": {"test_system": "Radish (Raphanus sativus) of Ronda type", "experiment": "Vanadyl ascorbate in cultivation of radish", "format": "in vivo", "conditions": "foliar twice, 0.004% V, total 20 g V/ha", "method": "Radish (Raphanus sativus) of Ronda type was cultivated in a plastic tunnel in a peat substrate. Vanadyl ascorbate at a 1:2 molar ratio of V:Asc (VO(C6H7O6)2.2H2O) was applied in the form of foliar spraying twice during the entire cultivation, vanadium concentration in the working liquid was 0.004% V. In two applications, the total vanadium dose per hectare was 20 g V/ha. The experiment was performed in a random block system, combinations were drawn in 4 blocks. There were 20 plants for each combination.\nFoliar application of vanadyl ascorbate VO(C6H7O6)2.2H2O has increased the mass of radish root by 12% compared to the control plants. […] Furthermore, in vanadium treated plants, the content of flavonoids responsible for protecting plant cells from oxidative stress, which is caused, among others, by through drought, has increased almost twice as compared to the control."}, "[6]": {"test_system": "fusarium foot and root rot", "experiment": "Fusarium foot and root rot on wheat", "format": "in vivo", "conditions": "wheat of Figura type, initial studies, analogous to the titanium complex"}}}
{"compound": "O.O.O=C1OC(C(O)CO)C([O-])=C1O.O=C1OC(C(O)CO)C([O-])=C1O.[O]=[V+2]", "note": "(stereo not drawn) [VO(C6H7O6)2•2H2O, vanadyl ascorbate]", "values": [{"measurement": "root mass increase compared to plants from the control object", "setting": "[1]; dose of 5 g V/ha", "value": 23, "unit": "%"}, {"measurement": "root mass increase compared to plants from the control object", "setting": "[1]; dose of 10 g V/ha", "value": 11, "unit": "%"}, {"measurement": "Chlorophyll", "setting": "[1]; dose of 5 g V/ha (0.001%)", "value": 35.0, "unit": "μg/cm^2"}, {"measurement": "Dry mass of leaves", "setting": "[1]; dose of 5 g V/ha (0.001%)", "value": 8.9, "unit": "%"}, {"measurement": "Dry mass of root", "setting": "[1]; dose of 5 g V/ha (0.001%)", "value": 2.9, "unit": "%"}, {"measurement": "Flavonoids", "setting": "[1]; dose of 5 g V/ha (0.001%)", "value": 0.77, "unit": "μg/cm^2"}, {"measurement": "Mass of celery leaves", "setting": "[1]; dose of 5 g V/ha (0.001%)", "value": 320.3, "unit": "g"}, {"measurement": "Mass of celery root", "setting": "[1]; dose of 5 g V/ha (0.001%)", "value": 90.7, "unit": "g"}, {"measurement": "Chlorophyll", "setting": "[1]; dose of 10 g V/ha (0.002%)", "value": 32.0, "unit": "μg/cm^2"}, {"measurement": "Dry mass of leaves", "setting": "[1]; dose of 10 g V/ha (0.002%)", "value": 9.5, "unit": "%"}, {"measurement": "Dry mass of root", "setting": "[1]; dose of 10 g V/ha (0.002%)", "value": 3.1, "unit": "%"}, {"measurement": "Flavonoids", "setting": "[1]; dose of 10 g V/ha (0.002%)", "value": 0.72, "unit": "μg/cm^2"}, {"measurement": "Mass of celery leaves", "setting": "[1]; dose of 10 g V/ha (0.002%)", "value": 317.3, "unit": "g"}, {"measurement": "Mass of celery root", "setting": "[1]; dose of 10 g V/ha (0.002%)", "value": 78.5, "unit": "g"}, {"measurement": "Chlorophyll", "setting": "[2]; iceberg lettuce, 0.001% V", "value": 29.6, "unit": "μg/cm^2"}, {"measurement": "Dry mass", "setting": "[2]; iceberg lettuce, 0.001% V", "value": 6.85, "unit": "%"}, {"measurement": "Flavonoids", "setting": "[2]; iceberg lettuce, 0.001% V", "value": 0.29, "unit": "μg/cm^2"}, {"measurement": "Mass of lettuce head", "setting": "[2]; iceberg lettuce, 0.001% V", "value": 78.2, "unit": "g"}, {"measurement": "increase of the mass of the lettuce head compared to the control", "setting": "[2]; iceberg lettuce, 0.001% V", "value": 14, "unit": "%"}, {"measurement": "Ca content", "setting": "[2]; lettuce, g/kg d.c.", "value": 18.17, "unit": "g/kg"}, {"measurement": "K content", "setting": "[2]; lettuce, g/kg d.c.", "value": 21.84, "unit": "g/kg"}, {"measurement": "Mg content", "setting": "[2]; lettuce, g/kg d.c.", "value": 4.92, "unit": "g/kg"}, {"measurement": "P content", "setting": "[2]; lettuce, g/kg d.c.", "value": 3.42, "unit": "g/kg"}, {"measurement": "S content", "setting": "[2]; lettuce, g/kg d.c.", "value": 2.69, "unit": "g/kg"}, {"measurement": "stability of the solution among the complexes", "setting": "[3]", "value": "most stable"}, {"measurement": "effect on the elimination of symptoms caused by diseases affecting the plant spikes", "setting": "[4]", "value": "positive effect"}, {"measurement": "Chlorophyll", "setting": "[5]", "value": 19.1, "unit": "μg/cm^2"}, {"measurement": "Dry mass of root", "setting": "[5]", "value": 4.8, "unit": "%"}, {"measurement": "Flavonoids", "setting": "[5]", "value": 0.88, "unit": "μg/cm^2"}, {"measurement": "Mass of radish root", "setting": "[5]", "value": 19.5, "unit": "g"}, {"measurement": "increase of the content of flavonoids compared to the control", "setting": "[5]", "value": "almost twice"}, {"measurement": "increase of the mass of radish root compared to the control plants", "setting": "[5]", "value": 12, "unit": "%"}, {"measurement": "effect on the elimination of symptoms caused by fusarium foot and root rot", "setting": "[6]", "value": "positive effect"}]}
